# Source: BindingDB's records for doi:10.1016/j.bmc.2018.03.016 (University of Lille, 2018)
# Assay: Modulation of human wild-type APP695 expressed in SH-SY5Y cells assessed as inhibition of amyloid beta (1 to 42 residues) production measured after 24 hrs by ELISA
row,SMILES,IC50 [µM]
1,CCN(CC)Cc1cc(Nc2ccnc3cc(Cl)ccc23)ccc1O [Amodiaquin],5.4
2,O=C(CN1CCCCC1)Nc1cc(CN2CCOCC2)cc(Nc2ccnc3cc(Cl)ccc23)c1,7.1
3,CCN(CC)Cc1cc(NCCN2CCCCC2)cc(Nc2ccnc3cc(Cl)ccc23)c1,13.8
4,CN(C)CCN(C)Cc1cc(NC(=O)CN2CCCCC2)cc(Nc2ccnc3cc(Cl)ccc23)c1,2.9
5,CN(C)Cc1ccccc1Nc1cc(C(=O)NCCN2CCCCC2)cc(C(=O)NCCN2CCCCC2)c1,> 10
6,O=C(NCCN1CCCCC1)c1cc(C(=O)NCCN2CCCCC2)cc(-c2ccccc2CN2CCCCC2)c1,9.4
7,CCN(CC)CCC[C@@H](C)Nc1ccnc2cc(Cl)ccc12 [Aralen],12.8
8,CCN(CC)Cc1cccc(Nc2ccnc3cc(Cl)ccc23)c1,10.4
9,Oc1c(CN2CCCC2)cc(Nc2ccnc3cc(Cl)ccc23)cc1CN1CCCC1,11.2
10,c1ccc(Nc2cc(CNCCN3CCCCC3)cc(CNCCN3CCCCC3)c2)c(CN2CCCCC2)c1,6
11,CCN(CC)Cc1cc(NC(=O)CN2CCCCC2)cc(Nc2ccnc3cc(Cl)ccc23)c1,2.8
12,O=C(NCCN1CCCCC1)c1cc(Nc2ccccc2CN2CCCCC2)cc(C(=O)NCCN2CCCCC2)c1,4.7
13,Clc1ccc2c(Nc3cc(CN4CCOCC4)cc(NCCN4CCCCC4)c3)ccnc2c1,4.9
14,c1ccc(Nc2cc(CNCCN3CCCCC3)cc(CNCCN3CCCCC3)c2)c(CN2CCOCC2)c1,7.9
15,CN1CCN(c2cc(Nc3ccnc4cc(Cl)ccc34)cc(N3CCN(C)CC3)c2)CC1,1.9
